The source made the active and inactive calls. No cut-off for these calls is given here.

These results are taken from ChEMBL document CHEMBL1135428, “A new type of prodrug of catecholamines: an opportunity to improve the treatment of Parkinson's disease” (2002).

Test [1] concerns Rattus norvegicus. Put plainly: Subcutaneously administered dose (in vivo) in male Wistar rats in a striatal microdialysis analysis and its metabolite, 5,6-di-OH-DPAT was found to be present. The test is classed as functional.
The subject of test [2] is Rattus norvegicus. The test can be described thus: Dopamine (DA) agonistic activity (% decrease in endogenous dopamine level) after peroral administration at a dose of 1.2 uM/kg; Inactive. Type of test: functional, organism-based.
The test system of test [3] is Rattus norvegicus. Put plainly: Dopamine (DA) agonistic activity (% decrease in endogenous dopamine level) after peroral administration at a dose of 0.4 uM/Kg. The test is classed as functional.
Test [4] deals with Rattus norvegicus. The test can be described thus: Dopamine (DA) agonistic activity (% decrease in endogenous dopamine level) after peroral administration at a dose of 1.2 uMl/Kg. Type of test: functional.

As for `CCCN(CCC)[C@@H]1CCC2=C(CCCC2=O)C1`, the Dose with Rattus norvegicus [1] is 350 µM/kg. For the same molecule, the Decrease result in the test on Rattus norvegicus [2] was “inactive”.

On to `CCCN(CCC)[C@H]1CCC2=C(CCCC2=O)C1`, for which, in the test on Rattus norvegicus [1], the Dose came out at 35 µM/kg. Also, the Decrease in the test on Rattus norvegicus [3] stood at 50%; with Rattus norvegicus [4] it was 70%.
